The structures appear in SMILES notation. “And” between values parts separate entries of the source, which are not always exact repeats. Equal values may be shown once. Toxic doses and inconclusive results are not listed.

The results in this text go back to PubChem BioAssay AID226 (DTP/NCI, 2004).

The test system of this assay is B6C3F1 mice, intracerebral ependymoblastoma, median survival T/C. Kind of assay: NCI In Vivo Anticancer Drug Screen. Data for tumor model Ependymoblastoma (intracerebral) in B6C3F1 mice. As to conditions: endpoint: median survival time, higher = longer survival. On the procedure:
The antitumor activity of compounds was measured in mice bearing transplantable tumors. Survival or tumor size were measured and the results are expressed as the measurement made in the treated group (T) divided by the measurement made in the vehicle treated control group (C). The tumor model used in this assay is Ependymoblastoma (intracerebral) in B6C3F1 mice

[1] abbreviates: dose: 64.0 mg/kg/injection, schedule: Q01DX005 (ip), vehicle: Klucel (hydroxypropylcellulose) (HPC).
Setting [2] is: dose: 32.0 mg/kg/injection, schedule: Q01DX005 (ip), vehicle: Klucel (hydroxypropylcellulose) (HPC).

For the compound `C[C@@H](CN1CC(=O)NC(=O)C1)N1CC(=O)NC(=O)C1`, the T/C is 112 % of control and 120 % of control (dose: 4.0 mg/kg/injection, schedule: Q01DX005 (ip), vehicle: Klucel (hydroxypropylcellulose) (HPC)); 116 % of control and 117 % of control (dose: 4.0 mg/kg/injection, schedule: Q01DX005 (ip), vehicle: saline with Tween-80); 102 % of control (dose: 4.0 mg/kg/injection, schedule: Q01DX005 (ip), vehicle: water); 108 % of control (dose: 8.0 mg/kg/injection, schedule: Q01DX005 (ip), vehicle: saline with Tween-80); 108 % of control and 111 % of control (dose: 16.0 mg/kg/injection, schedule: Q01DX005 (ip), vehicle: Klucel (hydroxypropylcellulose) (HPC)); 114 % of control and 118 % of control (dose: 16.0 mg/kg/injection, schedule: Q01DX005 (ip), vehicle: saline with Tween-80). Also, the T/C was 105 % of control (dose: 16.0 mg/kg/injection, schedule: Q01DX005 (ip), vehicle: water); 102 % of control and 114 % of control (dose: 32.0 mg/kg/injection, schedule: Q01DX005 (ip), vehicle: saline); 109 % of control (dose: 32.0 mg/kg/injection, schedule: Q01DX005 (oral), vehicle: saline); 107 % of control and 115 % of control under setting [1]; 114 % of control (dose: 64.0 mg/kg/injection, schedule: Q01DX005 (ip), vehicle: saline with Tween-80); 123 % of control (dose: 64.0 mg/kg/injection, schedule: Q01DX005 (ip), vehicle: saline). Further, the T/C reads like this: (dose: 64.0 mg/kg/injection, schedule: Q01DX005 (ip), vehicle: water) 108 % of control; (dose: 128.0 mg/kg/injection, schedule: Q01DX005 (ip), vehicle: saline) 120 % of control; (dose: 128.0 mg/kg/injection, schedule: Q#A X002 (ip), vehicle: saline) 103 % of control; (dose: 256.0 mg/kg/injection, schedule: Q01DX001 (ip), vehicle: saline) 107 % of control and 111 % of control and 113 % of control; (dose: 256.0 mg/kg/injection, schedule: Q01DX001 (oral), vehicle: saline) 109 % of control and 123 % of control and 124 % of control; (dose: 256.0 mg/kg/injection, schedule: Q01DX005 (ip), vehicle: Klucel (hydroxypropylcellulose) (HPC)) 112 % of control and 122 % of control. Moreover, the T/C (dose: 256.0 mg/kg/injection, schedule: Q01DX005 (ip), vehicle: saline) was 120 % of control and 122 % of control; the T/C (dose: 256.0 mg/kg/injection, schedule: Q#A X002 (ip), vehicle: saline) was 113 % of control; the T/C (dose: 512.0 mg/kg/injection, schedule: Q01DX001 (ip), vehicle: saline) is 109 % of control and 118 % of control; the T/C (dose: 512.0 mg/kg/injection, schedule: Q01DX001 (oral), vehicle: saline) was 119 % of control and 121 % of control; the T/C (dose: 512.0 mg/kg/injection, schedule: Q#A X002 (ip), vehicle: saline) was 121 % of control; the T/C (dose: 1024.0 mg/kg/injection, schedule: Q01DX001 (ip), vehicle: saline) is 114 % of control and 121 % of control. Further, the T/C by setting is: (dose: 1024.0 mg/kg/injection, schedule: Q01DX001 (oral), vehicle: saline) 119 % of control; (dose: 1024.0 mg/kg/injection, schedule: Q#A X002 (ip), vehicle: saline) 121 % of control; (dose: 2048.0 mg/kg/injection, schedule: Q01DX001 (oral), vehicle: saline) 102 % of control and 121 % of control.
Regarding `CCCCN(C)N=Nc1ccc([N+](=O)[O-])cc1C(N)=O`, the T/C was 114 % of control (dose: 32.0 mg/kg/injection, schedule: Q01DX005 (ip), vehicle: saline with Tween-80); 171 % of control (dose: 128.0 mg/kg/injection, schedule: Q01DX005 (ip), vehicle: saline with Tween-80); 158 % of control (dose: 256.0 mg/kg/injection, schedule: Q01DX005 (ip), vehicle: saline with Tween-80).
On to `O=c1n(CC2CO2)c(=O)n(CC2CO2)c(=O)n1CC1CO1` (configuration not stated), for which the T/C is 113 % of control (dose: 16.4 mg/kg/injection, schedule: Q01DX004 (ip), vehicle: saline); 107 % of control (dose: 16.4 mg/kg/injection, schedule: Q01DX009 (ip), vehicle: saline); 117 % of control and 119 % of control (dose: 20.0 mg/kg/injection, schedule: Q01DX009 (ip), vehicle: saline); 111 % of control (dose: 20.5 mg/kg/injection, schedule: Q01DX004 (ip), vehicle: saline); 112 % of control (dose: 20.5 mg/kg/injection, schedule: Q01DX009 (ip), vehicle: saline); 98 % of control (dose: 25.0 mg/kg/injection, schedule: Q01DX005 (ip), vehicle: saline with Tween-80). The T/C is 107 % of control (dose: 25.6 mg/kg/injection, schedule: Q01DX004 (ip), vehicle: saline); 113 % of control (dose: 25.6 mg/kg/injection, schedule: Q01DX009 (ip), vehicle: saline); 165 % of control (dose: 30.0 mg/kg/injection, schedule: Q01DX009 (ip), vehicle: saline); 115 % of control (dose: 32.0 mg/kg/injection, schedule: Q01DX004 (ip), vehicle: saline); 121 % of control (dose: 32.0 mg/kg/injection, schedule: Q01DX009 (ip), vehicle: saline); 95 % of control (dose: 49.2 mg/kg/injection, schedule: Q01DX001 (ip), vehicle: saline). Also, the T/C was 113 % of control (dose: 50.0 mg/kg/injection, schedule: Q01DX009 (ip), vehicle: saline); 109 % of control (dose: 61.4 mg/kg/injection, schedule: Q01DX001 (ip), vehicle: saline); 112 % of control (dose: 76.8 mg/kg/injection, schedule: Q01DX001 (ip), vehicle: saline); 106 % of control (dose: 96.0 mg/kg/injection, schedule: Q01DX001 (ip), vehicle: saline); 121 % of control (dose: 120.0 mg/kg/injection, schedule: Q01DX001 (ip), vehicle: saline); 119 % of control (dose: 150.0 mg/kg/injection, schedule: Q01DX001 (ip), vehicle: saline).
For the compound `Cc1nc(N)nc(N)c1-c1ccc(Cl)c(Cl)c1`, the T/C by setting is: (dose: 1.25 mg/kg/injection, schedule: Q01DX005 (ip), vehicle: saline) 106 % of control; (dose: 2.5 mg/kg/injection, schedule: Q01DX005 (ip), vehicle: saline) 102 % of control; (dose: 5.0 mg/kg/injection, schedule: Q01DX005 (ip), vehicle: saline) 120 % of control.
Turning to `CC(C)=CCC1=C(O)c2ccccc2C(=O)C1=O`, the T/C was 91 % of control under setting [2]; 100 % of control under setting [1]; 96 % of control (dose: 128.0 mg/kg/injection, schedule: Q01DX005 (ip), vehicle: Klucel (hydroxypropylcellulose) (HPC)).
Regarding `NC(CSC(c1ccccc1)(c1ccccc1)c1ccccc1)C(=O)O` (configuration not stated), the T/C under setting [2] is 107 % of control; the T/C under setting [1] is 107 % of control; the T/C (dose: 512.0 mg/kg/injection, schedule: Q01DX001 (ip), vehicle: Klucel (hydroxypropylcellulose) (HPC)) was 108 % of control; the T/C (dose: 516.0 mg/kg/injection, schedule: Q01DX001 (ip), vehicle: Klucel (hydroxypropylcellulose) (HPC)) was 86 % of control.
With `CCC(C)Sc1nc(N)nc2c1ncn2C1OC(CO)C(O)C1O` (configuration not stated), the T/C is 97 % of control and 119 % of control (dose: 37.5 mg/kg/injection, schedule: Q01DX005 (ip), vehicle: Klucel (hydroxypropylcellulose) (HPC)); 113 % of control and 116 % of control (dose: 75.0 mg/kg/injection, schedule: Q01DX005 (ip), vehicle: Klucel (hydroxypropylcellulose) (HPC)); 115 % of control (dose: 150.0 mg/kg/injection, schedule: Q01DX005 (ip), vehicle: Klucel (hydroxypropylcellulose) (HPC)); 95 % of control and 113 % of control (dose: 300.0 mg/kg/injection, schedule: Q01DX005 (ip), vehicle: Klucel (hydroxypropylcellulose) (HPC)).
Turning to `COc1ccc(C(=O)/C(Br)=C/C(=O)O)cc1`, the T/C reads like this: (dose: 10.0 mg/kg/injection, schedule: Q01DX005 (ip), vehicle: saline) 92 % of control and 104 % of control; (dose: 20.0 mg/kg/injection, schedule: Q01DX005 (ip), vehicle: saline) 96 % of control and 103 % of control; (dose: 40.0 mg/kg/injection, schedule: Q01DX005 (ip), vehicle: saline) 94 % of control and 104 % of control.
With `Nc1ncn(C2OC(CO)C(O)C2O)c(=O)n1` (configuration not stated), the T/C runs as follows: (dose: 0.59 mg/kg/injection, schedule: Q03HX024 (ip), vehicle: saline) 111 % of control; (dose: 0.75 mg/kg/injection, schedule: Q01DX005 (ip), vehicle: saline) 116 % of control; (dose: 1.17 mg/kg/injection, schedule: Q03HX024 (ip), vehicle: saline) 109 % of control; (dose: 1.5 mg/kg/injection, schedule: Q01DX005 (ip), vehicle: saline) 109 % of control; (dose: 2.34 mg/kg/injection, schedule: Q03HX024 (ip), vehicle: saline) 116 % of control; (dose: 3.0 mg/kg/injection, schedule: Q01DX005 (ip), vehicle: saline) 116 % of control. The T/C (dose: 9.38 mg/kg/injection, schedule: Q03HX024 (ip), vehicle: saline) is 154 % of control.
